Here are results for three compounds from patent US20140243396A1, “METHOD OF TREATING MUCOEPIDERMOID CARCINOMA” (DANA-FARBER CANCER INSTITUTE, INC., priority 2011, published 2014).

For data set [1] the following is noted: in vivo; cited from earlier work.
For data set [2] the following is noted: a few small 2003 studies; cited from earlier work.
Data set [3] concerns HSY cells. As to the kind of experiment: cAMP measurement, enzyme immunoassay. Format: cell-based. Conditions: inhibitors. The source says: (§1) FIG. 5 illustrates inhibition of PDE4B increased cellular cAMP levels and inhibited PI3-kinase signaling. […] Columns: mean, bars: SD (n=3). B. Knock-down of PDE4B increased MEC cell cAMP level. n=3. **p<0.01, compared to control cells. Columns: mean, bars: SD (n=3). C. […] The same blot was stripped and probed with AKT or β-actin antibody. Image was cropped and auto-leveled by Photoshop. A representative of three independent experiments.
(§2) Cells were trypsinized and washed once with 1×PBS after treatment. The cell pellet was re-suspended in 100 μl of 0.1M HCL. cAMP amount was measure by Direct Cyclic AMP Enzyme Immunoassay Kit (#900-066, Assay Designs, Inc., Ann Arbor, Mich.) according to the manufacturer's protocol. The acetylated version of the kit was used.

Data set [4] deals with H3118 cells. Nature of the data set: cAMP measurement, enzyme immunoassay. Type of data set: cell-based. Conditions: compared to DMSO control.
Excerpt: as §1, §2

For data set [5], the system named is H292 cells. As to the kind of experiment: Cell growth, cell count by trypan blue exclusion. Type of data set: cell-based. The conditions noted are these: PDE4B knock-down, day 5 post-transduction, compared to scramble control. How it is done: (§3) FIG. 3 illustrates knock-down of PDE4B inhibits fusion positive MEC cell growth, causes cell cycle arrest and induces apoptosis. A. H3118 cell lysate was prepared on day 5 post-transduction and subjected to western blot analysis. Image was cropped and auto-leveled by Photoshop. A representative of three independent experiments. B. 1×10^5 MEC cells were infected twice by shRNA No. 1 and No. 2 and cell number was count on day 5 post-transduction by trypan blue exclusion. Columns: mean, bars: SD (n>3). *p<0.05, **p<0.01, compared with scramble control virus infected cell growth. C. 1×10^5 cells were infected twice by shRNA No. 2. Cell cycle was determined by PI staining followed by FACS analysis on day 5 post-transduction, n=3. D. 1×10^5 cells were infected twice by shRNA No. 2. Apoptosis assay was performed by PI and Annexin-V staining and analyzed by flow cytometry on day 5 post-transduction, Columns: mean, bars: SD (n=3). *p<0.05, compared with control cells.
(§4) The Methods were described previously (Chen et al. Genes Cancer, 1:822-835 (2010)). Cell growth: 1-2×10^5 cells were infected with lenti-virus harboring specific shRNAs. On day 5 post infection, cells were counted by trypan blue exclusion. MTS proliferation assay (Promega, Madison, Wis.): 1-2×10^3 cells were treated with LY-294002, Compound A or DMSO in the concentration as indicated in FIG. 6A. MTS activities were measured on day 5. Cell cycle analysis: 1×10^5 cells were treated with inhibitors or infected with viruses. DNA amount was measured by flow cytometry analysis (BD FACScans). Apoptosis assay: 1×10^5 cells were treated with inhibitors or infected with virus. Cell viability was measured using the Annexin-V-FLUOS Staining Kit (Roche Diagnostics, Indianapolis, Ind.) by flow cytometry analysis (BD FACScans).

In data set [6] the test system is H3118 cells. Nature of the data set: Cell growth, cell count by trypan blue exclusion. Format: cell-based. Conditions: PDE4B knock-down, day 5 post-transduction, compared to scramble control. How it is done:
as §3, §4

Data set [7] concerns HSY cells. As to the kind of experiment: Apoptosis assay, PI and Annexin-V staining. The conditions noted are these: PDE4B knock-down, day 5 post-transduction. Type of data set: cell-based. How it is done:
(§5) FIG. 2 illustrates inhibition of PDE4B by pharmacological inhibitor rolipram plus forskolin prevents cell growth, causes cell cycle arrest and induces apoptosis in fusion positive MEC cells. Rolipram (R), forskolin (FK), Rolipram plus forskolin (R+FK) or DMSO. Columns: mean, bars: SD (n>3), *p<0.05, **p<0.01, ***p<0.001, compared to HSY cell growth. B. 1×10^5 cells were treated with 50 μM R plus 20 μM FK or DMSO for 24 hours. C. 1×10^5 cells were treated with 50 μM rolipram plus 20 μM forskolin with or DMSO for 48 hours. Apoptosis assay was performed by PI and Annexin-V staining and analyzed by flow cytometry. Columns: mean, bars: SD (n=3). *p<0.05, compared with DMSO treated cells.
(§6) FIG. 3 illustrates knock-down of PDE4B inhibits fusion positive MEC cell growth, causes cell cycle arrest and induces apoptosis. […] Cell cycle was determined by PI staining followed by FACS analysis on day 5 post-transduction, n=3. […] Apoptosis assay was performed by PI and Annexin-V staining and analyzed by flow cytometry on day 5 post-transduction, Columns: mean, bars: SD (n=3). *p<0.05, compared with control cells.
(§7) The Methods were described previously (Chen et al. Genes Cancer, 1:822-835 (2010)). […] On day 5 post infection, cells were counted by trypan blue exclusion. […] MTS activities were measured on day 5. […] DNA amount was measured by flow cytometry analysis (BD FACScans). […]

For data set [8], the system named is H292 and H3118 cells. As to the kind of experiment: Apoptosis assay, PI and Annexin-V staining. The conditions noted are these: PDE4B knock-down, day 5 post-transduction. Format: cell-based. Here is the method: as §5, §6, §7
Data set [9] concerns H3118 cells. Nature of the data set: In vivo murine xenograft model. Also noted: species or system SCID hairless (SHO) mice. The source says:
FIG. 4 illustrates knock-down of PDE4B inhibited MEC cell growth in vivo. A. Tumor volume in SCID hairless mice. Points: mean of 5 tumors, bars: SD (n=5). ***p<0.001, compared to control tumor. B. Representative picture of the tumors dissected from the mice after sacrifice on day 30. Five pair (shPDE4B vs. scramble control) of tumors was shown (n=5). C. Tumor weight from SCID hairless mice. Tumors were weighted on day 30 at sacrifice. Columns: mean, bars: SD (n=5). ***p<0.001, compared to control tumor weight. D. RT-qPCR analysis of PDE4B expression from the tumor biopsies. Columns: mean, bars: SD (n=3). ***p<0.001, compared to control tumor.
Mice were maintained and treated in accordance with institutional guidelines of Dana Farber Cancer Institute Animal Resource Facilities. H3118 cells were infected twice with shPDE4B-2 or scramble control virus. On day three post-transduction, 5×10^6 shPDE4B cells were injected subcutaneously (s.c.) into one flank of a SCID hairless (SHO) mice (Charles River Laboratories International, Inc., Wilmington, Mass.) and 5×10^6 control cells were injected into the opposite flank (Dubrovska et al., Proc Natl Acad Sci USA, 2009, 106: 268-273; Serra et al. Cancer Res, 2008, 68: 8022-8030). A total of five mice were used. The tumor volume was measured every two days starting from day 10, volume=(length×width2)×(π/6). Mice were sacrificed on day 30. The tumors were excised and the weight was measured.

Data set [10] relates to H292 cells. As to the kind of experiment: Cell cycle analysis by flow cytometry. Format: cell-based. The conditions noted are these: PDE4B knock-down, day 5 post-transduction; scramble control 50%. How it is done:
as §5, §3
(§8) The Methods were described previously (Chen et al. Genes Cancer, 1:822-835 (2010)). […] On day 5 post infection, cells were counted by trypan blue exclusion. […] MTS activities were measured on day 5. […] DNA amount was measured by flow cytometry analysis (BD FACScans). […] Cell viability was measured using the Annexin-V-FLUOS Staining Kit (Roche Diagnostics, Indianapolis, Ind.) by flow cytometry analysis (BD FACScans).
(In general: Flow cytometry measures light scatter and fluorescence of single cells or particles in a stream.)

Data set [11] deals with HSY cells. As to the kind of experiment: Cell cycle analysis by flow cytometry. The conditions noted are these: PDE4B knock-down. Format: cell-based. Here is the method:
as §5, §3, §8

Data set [12] deals with H3118 cells. As to the kind of experiment: Cell cycle analysis by flow cytometry. Format: cell-based. The conditions noted are these: PDE4B knock-down, day 5 post-transduction; scramble control 57%. How it is done:
as §5, §3, §8

Data set [13] has as its system HSY cells. As to the kind of experiment: Cell growth, cell count by trypan blue exclusion. Type of data set: cell-based. Conditions: HSY cells, PDE4B knock-down. How it is done:
as §5, §3, §4

In the case of `CCOc1ccc(/C=C2\NCCc3cc(OCC)c(OCC)cc32)cc1OCC` [Drotaverine], the adverse effects frequency in data set [1] is 0.9%. Moreover, the “effective in treating renal colic” value in [2] is reported as approximately 80%.
As to `C=C[C@@]1(C)CC(=O)[C@]2(O)[C@@]3(C)[C@@H](O)CCC(C)(C)[C@@H]3[C@H](O)[C@H](OC(C)=O)[C@@]2(C)O1` [forskolin], the “effect on cAMP levels (in words)” value in data set [3] is “no effect”. Further, the “increase of cAMP levels” value in [4] is 4 fold.
Turning to “shRNA #2: shRNA lenti-viral construct targeting PDE4B, SEQ ID NO 2 (CCGGGCGCAGAGAGTCATTTCTCTACTCGAGTAGAGAAATGACTCTCTGCGCTTTTTG)”, the growth inhibition in [5] turned out to be 74%; in data set [6], 83%. The “apoptosis (in words)” value in data set [7] was “no significant effect”; in data set [8], “significant apoptosis”. The “tumor growth in vivo (in words)” value in [9] (H3118 cells with PDE4B knock-down vs control cells, s.c., tumor volume every two days) is “significantly slower”. In [9] (RT-qPCR, compared to controls), the “repression of PDE4B expression in tumor biopsies” value came out at 71%. Besides, the “average tumor weight, less than controls” value in [9] (day 30 at sacrifice) came to 88%. The results for the “cells arrested at G0/G1 phase” value in data set [10] and in [12] were 78% and 79%, respectively. Also, in data set [11], the “cell cycle arrest (in words)” value is given as “much less effect”. For the same compound, the “cell growth (in words)” value in [13] is “slight growth reduction”.
